SMILES strings stand for the structures.

Experiment [1] concerns G2C4 RNA (RNA, triplex) GGCCCC. In words: DSC. The conditions noted are these: 100 mM NaCl; 10 mM sodium cacodylate pH 6.0; 300 μM ANP77, 300 μM RNA; triplex melting 38.1 to 41.5; derived from two Tm.
For experiment [2], the system named is G2C4 RNA (RNA, triplex) GGCCCC. The experiment is described as follows: ITC. The conditions noted are these: 100 mM NaCl; 10 mM sodium cacodylate pH 6.0, 25°C; one set of sites model.
For experiment [3], the system named is (G2C4)2 (RNA, repeat) GGCCCCGGCCCC
The experiment is described as follows: ITC. The conditions noted are these: 100 mM NaCl; 10 mM sodium cacodylate pH 6.0, 25°C; sequential binding sites model; site 1 of 2.

Experiment [4] has the same test system. The experiment is described as follows: circular dichroism. The conditions noted are these: 100 mM NaCl; 10 mM sodium cacodylate pH 7.0, room temperature; 2.5 μM RNA, 25 μM ANP77. On the technique in general: Circular dichroism is widely used to follow secondary structure.
In experiment [5] the test system is RNA oligomer having five G2C4 repeats (RNA, repeat) GGCCCCGGCCCCGGCCCCGGCCCCGGCCCC
In words: circular dichroism. The conditions noted are these: 100 mM NaCl; 10 mM sodium cacodylate pH 7.0, room temperature; 2.5 μM RNA, 25 μM ANP77.

Experiment [6] has as its system G2C4 RNA (RNA, triplex) GGCCCC. In words: X-ray crystal structure. The conditions noted are these: 80 mM NaCl; 40 mM sodium cacodylate pH 6.0, 45% MPD, 12 mM spermine, 19°C; 1.1 Å.
The subject of experiment [7] is G2C4 RNA (RNA, triplex) GGCCCC. The experiment is described as follows: CSI-TOF mass spectrometry. The conditions noted are these: 250 mM ammonium acetate; water/methanol 8:2, -10°C spray; 20 μM RNA, 50 μM ANP77; complexes with double-stranded form.

For `NCCCNC(=O)C(Cc1ccc2ccc(N)nc2n1)Cc1ccc2ccc(N)nc2n1`, the “ΔTm1 (shift in Tm1)” value in experiment [1] worked out at 3.4 °C. Moreover, the Kd is 7.9 ± 1.0 µM in experiment [2] and 0.976 ± 0.377 µM in experiment [3]. The binding entry in experiment [4], in experiment [5], in experiment [6] and in experiment [7] was “yes” in each case.

Broadly, the Kd is a measure of binding affinity in units of concentration. Read a high Kd as weaker binding.

These data come from PMC11194091 (2024).
